Assay results reported in patent publication US10596172B2 (Celgene CAR LLC, priority 2008, dated 2020).
Where two headings read alike, the source gives them in different places.

Columns and labels:
BTK [1] = target: T1, BTK (Homo sapiens (Human), UniProt Q06187); assay: Omnia assay for potency assessment against BTK; type: biochemical; conditions: [BTK]=5 nm; read-out: BTK Inhibition
Description: Omnia Assay Protocol for Potency Assessment Against BTK
The modified BTK-optimized reagent conditions for the above protocol are:
[BTK]=5 nm, [ATP]=40 mM, [Y5-Sox]=10 mM (ATP KMapp˜36 mM).

EGFR-WT = EGFR-WT (Homo sapiens (Human), UniProt P00533); assay: Omnia assay for potency assessment against EGFR (WT); type: biochemical; conditions: wild-type EGFR; read-out: EGFR Wild Type Inhibition
BTK [2] = target: T1, BTK; assay: Washout experiment with Ramos cells; type: cell-based; conditions: 100 nM compound 1 hour, then washout
Description: Ramos cells were serum starved for one hour in RPMI media +1% glutamine at 37° C. After starvation, Ramos cells were treated with 100 nM compound diluted in serum free RPMI media for 1 hour. After compound treatment, the media was removed and cells were washed with compound-free media. Subsequently, Ramos cells were washed every 2 hours and resuspended in fresh compound-free media. Cells were collected at specified timepoints, treated with 1 ug anti-human IgM (Southern Biotech cat #2022-01) for 10 minutes on ice to induce BCR signaling and then washed in PBS. Ramos cells were then lysed in Cell Extraction Buffer (Invitrogen FNN0011) supplemented with Roche complete protease inhibitor tablets (Roche 11697498001) and phosphatase inhibitors (Roche 04 906 837 001) and 18 ug total protein lysate was loaded in each lane. Inhibition of BTK kinase activity was assayed by measuring its substrate (PLCγ2) phosphorylation by western blot with phospho-specific antibodies from Cell Signaling Technologies cat #3871. The results of this experiment with compounds I-2, I-4 and I-7 are depicted in FIGS. 1, 2 and 3.

[3] = test system: B cell lymphoma cell lines; assay: B cell lymphoma proliferation assay; type: cell-based; conditions: Homo sapiens
JAK3 = JAK3 (Homo sapiens (Human), UniProt P52333); assay: Omnia assay for potency assessment against the active form of JAK3; type: biochemical; conditions: read-out: JAK3 Inhibition
Description: Briefly, 10× stocks of EGFR-WT (PV3872) from Invitrogen and EGFR-T790M/L858R (40350) from BPS Bioscience, San Diego, Calif., 1.13×ATP (AS001A) and appropriate Tyr-Sox conjugated peptide substrates (KCZ1001) were prepared in 1× kinase reaction buffer consisting of 20 mM Tris, pH 7.5, 5 mM MgCl2, 1 mM EGTA, 5 mM β-glycerophosphate, 5% glycerol (10× stock, KB002A) and 0.2 mM DTT (DS001A).
The Omnia Assay Protocol for potency assessment against JAK3 was performed in a substantially similar manner as that described in Example 251 above except that the modified JAK3-optimized reagent conditions were:
[JAK3]=5 nM, [ATP]=5 μM, [Y12-Sox]=5 μM (ATP KMapp˜5 μM).

[4] = DOHH-2, DOHH2 B cell lymphoma cell line, read-out: EC50 (μM) DOHH2
[5] = WSUDLCL2, WSU-DLCL2 B cell lymphoma cell line, read-out: EC50 (μM) WSU-DLCL2

T1 sequence (Q06187 whole entry): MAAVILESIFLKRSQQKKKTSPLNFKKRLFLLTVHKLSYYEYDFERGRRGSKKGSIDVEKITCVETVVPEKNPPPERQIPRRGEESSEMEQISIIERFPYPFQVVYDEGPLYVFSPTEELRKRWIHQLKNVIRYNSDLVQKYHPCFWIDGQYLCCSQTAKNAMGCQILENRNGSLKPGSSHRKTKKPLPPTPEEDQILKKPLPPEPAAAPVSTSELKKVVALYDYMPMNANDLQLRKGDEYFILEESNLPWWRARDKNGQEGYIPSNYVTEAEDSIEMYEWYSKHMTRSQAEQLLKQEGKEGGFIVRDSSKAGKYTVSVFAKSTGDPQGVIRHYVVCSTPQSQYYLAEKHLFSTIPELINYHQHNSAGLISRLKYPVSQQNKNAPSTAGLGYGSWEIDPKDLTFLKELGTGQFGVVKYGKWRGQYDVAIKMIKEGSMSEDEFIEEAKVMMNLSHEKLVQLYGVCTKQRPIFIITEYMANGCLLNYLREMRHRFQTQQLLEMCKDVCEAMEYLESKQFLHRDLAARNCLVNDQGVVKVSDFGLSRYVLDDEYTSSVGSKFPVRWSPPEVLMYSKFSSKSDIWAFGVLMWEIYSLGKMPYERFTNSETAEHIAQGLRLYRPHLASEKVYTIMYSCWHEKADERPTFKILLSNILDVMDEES
Sequence of JAK3 (P52333 whole entry): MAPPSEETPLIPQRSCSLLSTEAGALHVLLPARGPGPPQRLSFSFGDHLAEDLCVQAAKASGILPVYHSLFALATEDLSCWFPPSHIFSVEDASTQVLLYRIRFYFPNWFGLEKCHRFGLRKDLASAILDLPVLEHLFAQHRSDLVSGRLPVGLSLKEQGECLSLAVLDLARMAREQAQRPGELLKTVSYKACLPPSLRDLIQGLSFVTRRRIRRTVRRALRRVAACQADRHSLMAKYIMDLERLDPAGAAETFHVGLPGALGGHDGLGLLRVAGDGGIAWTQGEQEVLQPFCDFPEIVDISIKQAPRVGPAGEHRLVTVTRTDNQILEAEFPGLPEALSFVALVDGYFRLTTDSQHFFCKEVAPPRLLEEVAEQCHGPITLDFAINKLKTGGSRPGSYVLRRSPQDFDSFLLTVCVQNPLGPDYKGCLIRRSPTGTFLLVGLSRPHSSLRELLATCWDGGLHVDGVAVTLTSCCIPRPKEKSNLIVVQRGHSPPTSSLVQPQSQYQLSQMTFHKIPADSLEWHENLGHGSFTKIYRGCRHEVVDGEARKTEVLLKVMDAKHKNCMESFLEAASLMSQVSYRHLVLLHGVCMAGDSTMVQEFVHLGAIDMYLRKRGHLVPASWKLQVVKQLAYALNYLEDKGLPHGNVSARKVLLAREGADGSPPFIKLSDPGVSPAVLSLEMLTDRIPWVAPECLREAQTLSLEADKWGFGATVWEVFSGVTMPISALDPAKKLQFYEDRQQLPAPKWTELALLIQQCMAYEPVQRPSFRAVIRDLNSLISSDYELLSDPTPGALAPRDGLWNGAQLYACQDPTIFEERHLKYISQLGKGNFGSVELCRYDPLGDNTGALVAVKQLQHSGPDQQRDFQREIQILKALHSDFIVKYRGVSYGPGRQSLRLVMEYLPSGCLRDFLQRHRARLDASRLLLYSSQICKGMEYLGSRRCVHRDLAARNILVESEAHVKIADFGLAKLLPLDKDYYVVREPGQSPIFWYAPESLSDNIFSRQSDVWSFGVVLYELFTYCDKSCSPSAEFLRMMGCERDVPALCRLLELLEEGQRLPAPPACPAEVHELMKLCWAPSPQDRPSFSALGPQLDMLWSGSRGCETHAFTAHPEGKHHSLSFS

Compound | IC50 (BTK [1]) [nM] | IC50 (EGFR-WT) [nM] | BTK Inhibition Type (BTK [2]) | EC50 [3, 4] [µM] | EC50 [3, 5] [µM] | IC50 (JAK3) [nM]
C=CC(=O)Nc1cccc(Nc2nc(Nc3ccc(Cl)c(O[C@@H](C)COC(=O)[C@@H](N)C(C)C)c3)ncc2F)c1 [Compound I-369, (S)-((S)-2-(5-(4-(3-acrylamidophenylamino)-5-fluoropyrimidin-2-ylamino)-2-chlorophenoxy)propyl)-2-amino-3-methylbutanoate] | < 10 | 100 to 1000 | – | – | – | –
Cc1cnc(Nc2ccccc2)nc1Nc1cccc(NC(=O)/C=C/CN(C)C)c1 [Compound I-38, (E)-4-(dimethylamino)-N-(3-(5-methyl-2-(phenylamino)pyrimidin-4-ylamino)phenyl)but-2-enamide] | – | – | reversible | 1 to 10 | 1 to 10 | 10 to 100
C=CC(=O)Nc1cccc(Nc2nc(Nc3ccc(O[C@@H](C)COC(=O)[C@@H](N)C(C)C)c(F)c3)ncc2F)c1 [Compound I-377, (S)-((S)-2-(4-(4-(3-acrylamidophenylamino)-5-fluoropyrimidin-2-ylamino)-2-fluorophenoxy)propyl) 2-amino-3-methylbutanoate] | – | 10 to 100 | – | – | – | –
C=CC(=O)Nc1cccc(Nc2nc(Nc3ccc(OCCN=[N+]=[N-])cc3)ncc2F)c1 [Compound I-376, N-(3-(2-(4-(2-azidoethoxy)phenylamino)-5-fluoropyrimidin-4-ylamino)phenyl)acrylamide] | < 10 | 10 to 100 | – | – | – | –
C=CC(=O)Nc1cccc(Nc2nc(Nc3ccc(O[C@H](C)COC(=O)[C@@H](N)C(C)C)c(F)c3)ncc2F)c1 [Compound I-374, (S)-((R)-2-(4-(4-(3-acrylamidophenylamino)-5-fluoropyrimidin-2-ylamino)-2-fluorophenoxy)propyl) 2-amino-3-methylbutanoate] | < 10 | < 10 | – | – | – | –
C=CC(=O)Nc1cccc(Nc2nc(Nc3ccc(OCCOCCNC(=O)CCCC(=O)NCCCOCCOCCOCCCNC(=O)CCCC[C@@H]4SC[C@@H]5NC(=O)N[C@@H]54)cc3)ncc2F)c1 [Compound I-363, N1-(2-(2-(4-(4-(3-acrylamidophenylamino)-5-fluoropyrimidin-2-ylamino)phenoxy)ethoxy)ethyl)-N5-(15-oxo-19-((3aS,4S,6aR)-2-oxohexahydro-1H-thieno[3,4-d]imidazol-4-yl)-4,7,10-trioxa-14-azanonadecyl)glutaramide] | < 10 | < 10 | – | – | – | –
COCCOc1ccc(Nc2ncc(F)c(Nc3ccc(CC(=O)C=C4CCC4)cc3)n2)cc1F [Compound I-378] | < 10 | 10 to 100 | – | – | – | –
C=CC(=O)Nc1cccc(Nc2nc(Nc3ccc(OCCOCCOCCN=[N+]=[N-])cc3)ncc2F)c1 [Compound I-379, N-(3-(2-(4-(2-(2-(2-azidoethoxy)ethoxy)ethoxy)phenylamino)-5-fluoropyrimidin-4-ylamino)phenyl)acrylamide] | – | 100 to 1000 | – | – | – | –
C=CC(=O)Nc1cccc(Nc2nc(Nc3ccc(OCCOCCN=[N+]=[N-])cc3)ncc2F)c1 [Compound I-371, N-(3-(2-(4-(2-(2-azidoethoxy)ethoxy)phenylamino)-5-fluoropyrimidin-4-ylamino)phenyl)acrylamide] | < 10 | 10 to 100 | – | – | – | –
C=CC(=O)Nc1cccc(Nc2nc(Nc3ccc(OCCOCCNC(=O)OC(C)(C)C)cc3)ncc2F)c1 [Compound I-370, tert-butyl 2-(2-(4-(4-(3-acrylamidophenylamino)-5-fluoropyrimidin-2-ylamino)phenoxy)ethoxy)ethylcarbamate] | < 10 | < 10 | – | – | – | –
C=CC(=O)N1CCCC(Nc2nc(Nc3ccccc3)ncc2C)C1 (stereo not shown) [Compound I-27] | – | – | – | 1 to 10 | > 10 | 10 to 100
C=CC(=O)Nc1cccc(Nc2ncc(F)c(Nc3ccc(OCCOC)cc3)n2)c1 [Compound I-381, N-(3-(5-fluoro-4-(4-(2-methoxyethoxy)phenylamino)pyrimidin-2-ylamino)phenyl)acrylamide] | < 10 | < 10 | – | – | – | –
C=CC(=O)Nc1cccc(Oc2nc(Nc3cc(OC)c(OC)c(OC)c3)ncc2F)c1 [Compound I-148, N-(3-(5-fluoro-2(3,4,5-trimethoxyphenylamino)pyrimidin-4-yloxy)phenyl)acrylamide] | 1000 to 10000 | 1000 to 10000 | – | – | – | –
Cc1cccc(Nc2nc(Nc3cccc(NC(=O)/C=C/CN(C)C)c3)ncc2C)c1 [Compound I-360, (E)-4-(dimethylamino)-N-(3-(5-methyl-4-(m-tolylamino)pyrimidin-2-ylamino)phenyl)but-2-enamide] | < 10 | < 10 | – | – | – | < 10
C=CC(=O)Nc1cccc(Nc2nc(Nc3ccc(OCCOC)c(OCCOC)c3)ncc2F)c1 [Compound I-277, N-(3-(2-(3,4-bis(2-methoxyethoxy)phenylamino)-5-fluoropyrimidin-4-ylamino)phenyl)acrylamide] | < 10 | 10 to 100 | – | – | – | –
C=CC(=O)N1CCOc2ccc(Nc3nc(Nc4ccc(OC)nc4)ncc3C(C)=O)cc21 [Compound I-170, 1-{6-[5-Acetyl-2-(6-methoxy-pyridin-3-ylamino)-pyrimidin-4-ylamino]-2,3-dihydro-benzo[1,4]oxazin-4-yl}-propenone] | – | 10 to 100 | – | – | – | –
C=CC(=O)N1CCC[C@H](Nc2nc(Nc3ccc(OC)nc3)ncc2F)C1 [Compound I-197, (S)-1-(3-(5-fluoro-2-(6-methoxypyridin-3-ylamino)pyrimidin-4-ylamino)piperidin-1-yl)prop-2-en-1-one] | 100 to 1000 | 100 to 1000 | – | – | – | –
C=CC(=O)Nc1cccc(Nc2nc(Nc3ccccc3)ncc2C(F)(F)F)c1 [Compound I-245, N-(3-(5-trifluoromethyl-2-(phenylamino)pyrimidin-4-ylamino)phenyl)acrylamide] | – | – | – | 1 to 10 | > 10 | < 10
C=CC(=O)Nc1cccc(Nc2ncc(F)c(Nc3cccc(C)c3)n2)c1 [Compound I-3, N-(3-(5-fluoro-4-(m-tolylamino)pyrimidin-2-ylamino)phenyl)acrylamide] | – | – | – | 0.1 to 1 | – | < 10
C=CC(=O)Nc1cccc(Nc2nc(Nc3ccccc3)ncc2C(N)=O)c1 [Compound I-230, 4-(3-acrylamidophenylamino)-2-(phenylamino)pyrimidine-5-carboxamide] | – | – | irreversible | 1 to 10 | 1 to 10 | –
C=CC(=O)Nc1cccc(Nc2nc(Nc3ccc(O[C@H](C)CO)c(F)c3)ncc2F)c1 [Compound I-372, (R)—N-(3-(5-fluoro-2-(3-fluoro-4-(1-hydroxypropan-2-yloxy)phenylamino)pyrimidin-4-ylamino)phenyl)acrylamide] | < 10 | 10 to 100 | – | – | – | –
C=CC(=O)Nc1cccc(Oc2nc(Nc3ccccc3)ncc2F)c1 [Compound I-228, N-(3-(5-fluoro-2-(phenylamino)pyrimidin-4-yloxy)phenyl)acrylamide] | – | – | irreversible | > 10 | > 10 | –
C=CC(=O)Nc1cccc(Nc2nc(Nc3ccc(O[C@@H](C)CO)c(F)c3)ncc2F)c1 [Compound I-373, (S)—N-(3-(5-fluoro-2-(3-fluoro-4-(1-hydroxypropan-2-yloxy)phenylamino)pyrimidin-4-ylamino)phenyl)acrylamide] | < 10 | 10 to 100 | – | – | – | –
C=CC(=O)Nc1cccc(Nc2ncc(F)c(Nc3ccc(O[C@H]4CCOC4)cc3)n2)c1 [Compound I-338, (S)—N-(3-(5-fluoro-4-(4-(tetrahydrofuran-3-yloxy)phenylamino)pyrimidin-2-ylamino)phenyl)acrylamide] | – | 10 to 100 | – | – | – | –
4-(4-(4-(3-acrylamidophenylamino)-5-fluoropyrimidin-2-ylamino)phenoxy)pyridine [Compound I-346] | < 10 | 100 to 1000 | – | – | – | –
C=CC(=O)Nc1ccc(Nc2nc(Nc3ccccc3)ncc2C)cc1 [Compound I-39, N-(4-(5-methyl-2-(phenylamino)pyrimidin-4-ylamino)phenyl) acrylamide] | – | – | – | 1 to 10 | 1 to 10 | < 10
C=CC(=O)Nc1cccc(Nc2ncc(F)c(Nc3cccc(OCCN4CCOCC4)c3)n2)c1 [Compound I-382, N-(3-(5-fluoro-4-(3-(2-morpholinoethoxy)phenylamino)pyrimidin-2-ylamino)phenyl)acrylamide] | 10 to 100 | 100 to 1000 | – | – | – | –
